Measurements: US7601745B2, “Heterocyclic NF-kB inhibitors” (4SC AG, priority 2004, dated 2009)

System: A549-NF-κB-SEAP reporter cells
Experiment: Inhibition of NF-κB-induced inflammation ([…] NINA Instant Assay, SEAP reporter)
Type: cell-based
Details: for Biological activity (NF-κB inflammation assay, inhibition): TNF-α stimulated reporter cells, test concentration not given
Summary of the method: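 Reporter cells reactivated 18 h at 37° C, pre-incubated 4.5 h with compound (0.01 up to 100 μM), then stimulated with 2 ng/ml TNF-α for 22 h. SEAP measured by CSPD chemiluminescence (40 min) after endogenous phosphatase inactivation; EC50 fitted from quadruplicates.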

SMILES	Biological activity (NF-κB inflammation assay, inhibition) (compounds of formula (I))	further results
COc1cccc(CN2CCC(c3nc(C(=O)N4CCN(c5cccc(C(F)(F)F)c5)CC4)cs3)CC2)c1 [compound 173]	+ (“+” stands for 50-80% inhibition)	
CC1c2cc(O)c(O)cc2CCN1C(=O)c1csc(C2CCN(C(=O)Cc3ccc(F)cc3)CC2)n1 (centres unmarked) [compound 233]		Biological activity (NF-κB inflammation assay, inhibition) (compounds of formula (Ic)): + (“+” stands for 50-80% inhibition)
O=C(Nc1nc(C(=O)N2CCN(c3cccc(C(F)(F)F)c3)CC2)cs1)c1ccccc1OC(F)(F)F [compound 32]		Biological activity (NF-κB inflammation assay, inhibition) (compounds of formula (II)): +++ (“+++” stands for 90-100% inhibition)
NC(=Nc1nc2ccccc2[nH]1)NC(=O)c1csc(NC(=O)c2c(F)cccc2F)n1 [compound 57]		Biological activity (inhibition in the NF-κB inflammation assay): +++ (“+++” stands for 90-100% inhibition)
N#Cc1ccc(C(=O)N2CCC(c3nc(C(=O)N4CCN(c5cccc(C(F)(F)F)c5)CC4)cs3)CC2)cc1 [compound 70]	++ (“++” means 80-90%)	
O=C(c1csc(C2CCN(S(=O)(=O)c3c(Cl)nc4sccn34)CC2)n1)N1CCN(c2cccc(C(F)(F)F)c2)CC1 [compound 197]	+ (“+” stands for 50-80% inhibition)	
Cc1cc2nc(NC(=O)c3coc(NC(=O)c4ccccc4OC(F)(F)F)n3)[nH]c2cc1C [compound 40]		Biological activity (inhibition in the NF-κB inflammation assay): +++ (“+++” stands for 90-100% inhibition)
O=C(c1csc(N2CCN(Cc3ccccc3)CC2)n1)N1CCN(C(c2ccccc2)c2ccccc2)CC1 [compound 71]		Biological activity (NF-κB inflammation assay, inhibition) (compounds of formula (II)): +++ (“+++” stands for 90-100% inhibition)
COc1cccc(NC(=O)N2CCC(c3nc(C(=O)N4CCN(c5cccc(C(F)(F)F)c5)CC4)cs3)CC2)c1 [compound 80]		Biological activity (NF-κB inflammation assay, inhibition) (compounds of formula (Ia)): + (“+” stands for 50-80% inhibition)
O=C(c1csc(C2CCN(S(=O)(=O)c3ccc(Br)cc3)CC2)n1)N1CCN(c2cccc(C(F)(F)F)c2)CC1 [compound 199]	+ (“+” stands for 50-80% inhibition)	
COc1nc(OC)nc(N2CCN(C(=O)c3csc(C4CCNCC4)n3)CC2)n1 [compound 152]	++ (“++” means 80-90%)	
O=C(c1csc(C2CCN(S(=O)(=O)c3ccc(Cl)cc3)CC2)n1)N1CCN(c2cccc(C(F)(F)F)c2)CC1 [compound 206]	+ (“+” stands for 50-80% inhibition)	
CNc1ccc(Cl)cc1C1c2ccccc2CCN1C(=O)c1csc(C2CCN(C(=O)c3ccccc3OC(F)(F)F)CC2)n1 (centres unmarked) [compound 150]		Biological activity (NF-κB inflammation assay, inhibition) (compounds of formula (Ic)): ++ (“++” means 80-90%)
O=C(c1csc(C2CCN(Cc3c(F)cccc3F)CC2)n1)N1CCN(c2cccc(C(F)(F)F)c2)CC1 [compound 168]	+ (“+” stands for 50-80% inhibition)	
CC(=O)Nc1ccc(S(=O)(=O)N2CCC(c3nc(C(=O)N4CCN(c5cccc(C(F)(F)F)c5)CC4)cs3)CC2)cc1 [compound 207]	+ (“+” stands for 50-80% inhibition)	
CCCCN1CCN(C(=O)c2csc(C3CCN(C(=O)Cc4ccc(F)cc4)CC3)n2)CC1 [compound 231]	+ (“+” stands for 50-80% inhibition)	
O=C(c1csc(C2CCN(Cc3ccc(Br)cc3)CC2)n1)N1CCN(c2cccc(C(F)(F)F)c2)CC1 [compound 174]	+ (“+” stands for 50-80% inhibition)	
Cc1cc2nc(NC(=O)c3csc(NC(=O)c4ccccc4OC(F)(F)F)n3)[nH]c2cc1C [compound 25]		Biological activity (inhibition in the NF-κB inflammation assay): +++ (“+++” stands for 90-100% inhibition)
O=C(CCC1CCCC1)N1CCN(c2nc(C(=O)N3CCN(c4cccc(C(F)(F)F)c4)CC3)cs2)CC1 [compound 37]		Biological activity (NF-κB inflammation assay, inhibition) (compounds of formula (II)): +++ (“+++” stands for 90-100% inhibition)
O=C(O)C=CC(=O)N1CCC(c2nc(C(=O)N3CCN(c4cccc(C(F)(F)F)c4)CC3)cs2)CC1 [compound 191]	+ (“+” stands for 50-80% inhibition)	
O=C(Nc1ccc2c(c1)OCCO2)N1CCC(c2nc(C(=O)N3CCN(c4cccc(C(F)(F)F)c4)CC3)cs2)CC1 [compound 75]		Biological activity (NF-κB inflammation assay, inhibition) (compounds of formula (Ia)): ++ (“++” means 80-90%)
O=C(c1csc(N2CCNCC2)n1)N1CCN(c2cccc(C(F)(F)F)c2)CC1 [compound 64]		Biological activity (NF-κB inflammation assay, inhibition) (compounds of formula (II)): + (“+” stands for 50-80% inhibition)
COc1cc(NC(=O)N2CCC(c3nc(C(=O)N4CCN(c5cccc(C(F)(F)F)c5)CC4)cs3)CC2)cc(OC)c1OC [compound 81]		Biological activity (NF-κB inflammation assay, inhibition) (compounds of formula (Ia)): ++ (“++” means 80-90%)
COc1nc(OC)nc(N2CCN(C(=O)c3csc(C4CCN(C(=O)c5ccccc5OC(F)(F)F)CC4)n3)CC2)n1 [compound 127]	+ (“+” stands for 50-80% inhibition)	
COc1ccc(Cl)cc1S(=O)(=O)N1CCC(c2nc(C(=O)N3CCN(c4cccc(C(F)(F)F)c4)CC3)cs2)CC1 [compound 202]	++ (“++” means 80-90%)	
COc1ccccc1N1CCN(c2nc(C(=O)N3CCN(c4cccc(C(F)(F)F)c4)CC3)cs2)CC1 [compound 65]		Biological activity (NF-κB inflammation assay, inhibition) (compounds of formula (II)): ++ (“++” means 80-90%)
O=C(c1csc(C2CCN(Cc3ccc(-c4ccccc4)cc3)CC2)n1)N1CCN(c2cccc(C(F)(F)F)c2)CC1 [compound 167]	+ (“+” stands for 50-80% inhibition)	
O=C(c1csc(C2CCN(C(=O)c3ccccc3OC(F)(F)F)CC2)n1)N1CCN(c2cccc(C(F)(F)F)c2)CC1 [compound 223]	+++ (“+++” stands for 90-100% inhibition)	
N=C(NC(=O)c1csc(C2CCN(C(=O)c3ccccc3OC(F)(F)F)CC2)n1)Nc1nc2ccccc2[nH]1 [compound 36]		Biological activity (inhibition in the NF-κB inflammation assay): +++ (“+++” stands for 90-100% inhibition)
